Experimental data as given in patent US10889562B2, “Prodrugs of Nrf2 activating compounds and uses thereof” (Rigel Pharmaceuticals, Inc., priority 2018, dated 2021).

Tests used:
[1] = Glutathione depletion assay (Michael reaction with reduced glutathione followed by 1H NMR); settings: 2 equiv. reduced glutathione, d6-DMSO, 35° C.
Description: Accordingly, the present compounds may be assessed in vitro by reaction with glutathione as follows:
(with the top securely fastened).
In all the above cases, dis-appearance of the alkene proton signals from the starting material are used to determine the extent of Michael reaction with glutathione.
As would be understood by those of skill in the art, the above experiments can be repeated by varying the equivalents of reduced glutathione (0.5 to 2 equivalents); the reactions can also be run in a mixture of d6-DMSO and D2O; and the temperature of the reaction can also be varied from room temperature to 35° C. (35° C. being used to mimic body temperature). As used herein “majority reaction” means a greater than 50% reduction in alkene proton signal as observed by ^1H NMR.

[2] = tested on: NrF2 (Nuclear factor (erythroid-derived 2)-like 2); experiment: NrF2 activation in a whole cell nuclear translocation assay; type: cell-based
Protocol: Compounds are tested in a NrF2 (Nuclear factor (erythroid-derived 2)-like 2) translocation assay by adapting the methods set forth in U.S. Pat. No. 8,101,373, the disclosure of which is incorporated herein by reference. A result of NrF2 activation in the assay by the present compounds is an indication of their anti-inflammatory activity.
In addition to monomethyl fumarate and dimethyl fumarate, bardoxolone methyl may be used as a positive control.

[3] = tested on: experimental autoimmune encephalomyelitis (EAE); experiment: Experimental autoimmune encephalomyelitis (EAE) animal model; type: in vivo, mice (C57BL/6); settings: mice, dosed at 60 mg/kg beginning on the day of immunization

| EC50 [2] | Compound | time to majority reaction with glutathione (greater than 50% reduction in alkene proton signal by 1H NMR) [1] | onset of disease paralysis [3] |
| --- | --- | --- | --- |
|  | COC(=O)/C=C/n1nnn(C)c1=O [methyl (E)-3-(4-methyl-5-oxo-4,5-dihydro-1H-tetrazol-1-yl)acrylate] | ≤ 30 h |  |
| ~127 µM | COC(=O)/C=C/C(=O)O [monomethylfumarate] |  |  |
|  | COC(=O)/C=C/n1nn[nH]c1=O [methyl (E)-3-(5-oxo-4,5-dihydro-1H-tetrazol-1-yl)acrylate] | ≤ 30 h | significantly prevents the onset of disease paralysis |
